Tests used:
DLK = DLK (Homo sapiens (Human), UniProt Q12852); test: DLK biochemical assay (TR-FRET, MKK7 phosphorylation)
Summary of the method: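 TR-FRET ratio (665/Eu) reports MKK7 T275/S277 phosphorylation, lowered by DLK inhibition. Reaction: 60 μM ATP, 15 nM MKK7, 10 nM DLK catalytic domain, 90 min room temperature; detection incubation 16 h, 37° C. (1536-well) or 4° C. (384-well). Final concentrations.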

LZK = LZK (Homo sapiens (Human), UniProt O43283); test: LZK biochemical assay (TR-FRET, MKK7 phosphorylation)
Summary of the method: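 Readout is the HTRF ratio (XL665/Eu) from an EDTA-containing detection mix of 0.4 nM Eu-anti-phospho-MKK7 (T275/S277) and 20 nM XL665-anti-His, incubated 16 h at 32° C. This followed a 90 min RT reaction of 10 nM LZK catalytic domain, 15 nM MKK7 and 15 μM ATP at pH 7.5.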

LZK, sequence (O43283 168-409): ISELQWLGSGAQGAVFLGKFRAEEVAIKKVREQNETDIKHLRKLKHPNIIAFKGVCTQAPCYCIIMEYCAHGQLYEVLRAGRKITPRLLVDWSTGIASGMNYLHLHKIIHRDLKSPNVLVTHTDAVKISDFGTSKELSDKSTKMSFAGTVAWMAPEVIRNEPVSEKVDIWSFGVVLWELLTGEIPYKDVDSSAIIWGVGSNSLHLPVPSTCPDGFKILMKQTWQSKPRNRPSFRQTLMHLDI
DLK, sequence (Q12852 1-520): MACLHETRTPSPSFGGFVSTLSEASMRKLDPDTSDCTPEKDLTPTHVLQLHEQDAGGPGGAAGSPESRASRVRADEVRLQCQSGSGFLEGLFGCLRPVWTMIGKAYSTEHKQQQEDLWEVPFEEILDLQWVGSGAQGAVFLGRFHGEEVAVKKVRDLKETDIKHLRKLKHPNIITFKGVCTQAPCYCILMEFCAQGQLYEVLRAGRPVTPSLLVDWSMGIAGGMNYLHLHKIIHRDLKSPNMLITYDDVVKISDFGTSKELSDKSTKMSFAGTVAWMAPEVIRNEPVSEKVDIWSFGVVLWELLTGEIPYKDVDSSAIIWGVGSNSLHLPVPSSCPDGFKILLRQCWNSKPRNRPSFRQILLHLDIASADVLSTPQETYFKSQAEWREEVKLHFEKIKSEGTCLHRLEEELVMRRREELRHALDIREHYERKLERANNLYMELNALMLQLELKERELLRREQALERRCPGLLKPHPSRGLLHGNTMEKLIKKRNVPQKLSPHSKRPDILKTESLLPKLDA

Row | SMILES | IC50 (DLK) [nM] | IC50 (LZK) [nM]
1 | Nc1nc2ccc(-c3csc(C(=O)NCCc4ccccc4)c3)cn2n1 [Compound 211] | 970 | 18000
2 | Nc1nc2ccc(-c3csc(C(=O)NCc4ccc(F)c(F)c4)c3)cn2n1 [Compound 212] | 1070 | 9600
3 | COc1cccc(CN(C)C(=O)c2cc(-c3ccc4nc(N)nn4c3)cs2)c1 [Compound 213] | 2450 | 7600
4 | CN1CCO[C@H](CNC(=O)c2cc(-c3ccc4nc(N)nn4c3)cs2)C1 [Compound 214] | 1750 | 25000
5 | Nc1nc2ccc(-c3csc(C(=O)NCCCc4ccccc4)c3)cn2n1 [Compound 215] | 720 | 30000
6 | Nc1nc2ccc(-c3csc(C(=O)NCc4cccc(F)c4)c3)cn2n1 [Compound 216] | 1140 | 5900
7 | Nc1nc2ccc(-c3csc(C(=O)NCc4ccccc4Cl)c3)cn2n1 [Compound 219] | 505 | 3100
8 | Nc1nc2ccc(-c3csc(C(=O)NCc4ccccc4C(F)(F)F)c3)cn2n1 [Compound 220] | 580 | 22000
9 | Nc1nc2ccc(-c3csc(C(=O)NCc4c(F)cccc4F)c3)cn2n1 [Compound 221] | 1240 | 9200
10 | Nc1nc2ccc(-c3csc(C(=O)NCc4cc(F)cc(F)c4)c3)cn2n1 [Compound 222] | 1390 | 5700
11 | Cc1cccc(CNC(=O)c2cc(-c3ccc4nc(N)nn4c3)cs2)c1C [Compound 223] | 640 | 23000
12 | Nc1nc2ccc(-c3csc(C(=O)Nc4ccccc4Cl)c3)cn2n1 [Compound 224] | 1660 | > 30000
13 | Nc1nc2ccc(-c3csc(C(=O)NCc4ccc(Cl)cc4)c3)cn2n1 [Compound 225] | 710 | 6950
14 | CCOc1ccccc1CNC(=O)c1cc(-c2ccc3nc(N)nn3c2)cs1 [Compound 226] | 670 | 5000
15 | Cc1ccccc1NC(=O)c1cc(-c2ccc3nc(N)nn3c2)cs1 [Compound 227] | 835 | > 30000
16 | COc1ccccc1NC(=O)c1cc(-c2ccc3nc(N)nn3c2)cs1 [Compound 228] | 480 | > 30000
17 | CN1CCCCC1CNC(=O)c1cc(-c2ccc3nc(N)nn3c2)cs1 (stereo not shown) [Compound 230] | 2500 | 28000
18 | COc1cc(CNC(=O)c2cc(-c3ccc4nc(N)nn4c3)cs2)ccc1F [Compound 231] | 860 | 11000
19 | COc1cccc(C(C)NC(=O)c2cc(-c3ccc4nc(N)nn4c3)cs2)c1 (stereo not shown) [Compound 232] | 200 | 25000
20 | Cc1cccc(C)c1NC(=O)c1cc(-c2ccc3nc(N)nn3c2)cs1 [Compound 233] | 440 | 17000
21 | COc1cc(CNC(=O)c2cc(-c3ccc4nc(N)nn4c3)cs2)ccn1 [Compound 234] | 470 | 18000
22 | COc1cncc(CNC(=O)c2cc(-c3ccc4nc(N)nn4c3)cs2)c1 [Compound 235] | 370 | 23000
23 | N#Cc1cccc(CNC(=O)c2cc(-c3ccc4nc(N)nn4c3)cs2)c1 [Compound 236] | 315 | > 30000

Row | SMILES | IC50 (DLK) [nM] | IC50 (LZK) [nM]
24 | COc1cc(CNC(=O)c2cc(-c3ccc4nc(N)nn4c3)cs2)cc(OC)c1 [Compound 238] | 270 | > 30000
25 | Nc1nc2ccc(-c3csc(C(=O)NCc4ncco4)c3)cn2n1 [Compound 239] | 1850 | 18000
26 | Cc1csc(CNC(=O)c2cc(-c3ccc4nc(N)nn4c3)cs2)n1 [Compound 240] | 640 | 6300
27 | Cn1ccnc1CNC(=O)c1cc(-c2ccc3nc(N)nn3c2)cs1 [Compound 241] | 1300 | 21000
28 | Cn1ccc(CNC(=O)c2cc(-c3ccc4nc(N)nn4c3)cs2)n1 [Compound 242] | 1800 | 19000
29 | Cc1cn(C)nc1CNC(=O)c1cc(-c2ccc3nc(N)nn3c2)cs1 [Compound 243] | 1500 | 17000
30 | Nc1nc2ccc(-c3csc(C(=O)NCc4nc(C(F)(F)F)cs4)c3)cn2n1 [Compound 245] | 1300 | > 30000
31 | Nc1nc2ccc(-c3csc(C(=O)NCc4nc5ccccc5o4)c3)cn2n1 [Compound 246] | 1140 | 4400
32 | COc1ccc2oc(CNC(=O)c3cc(-c4ccc5nc(N)nn5c4)cs3)nc2c1 [Compound 247] | 800 | 3800
33 | CC(C)c1csc(CNC(=O)c2cc(-c3ccc4nc(N)nn4c3)cs2)n1 [Compound 249] | 745 | 7600
34 | Nc1nc2ccc(-c3csc(C(=O)NCc4cnc(Cl)s4)c3)cn2n1 [Compound 250] | 935 | 4500
35 | Cn1cnc(CNC(=O)c2cc(-c3ccc4nc(N)nn4c3)cs2)c1 [Compound 251] | 1960 | 9100
36 | COc1cccc(CNC(=O)c2cc(-c3ccc4nc(N)nn4c3)cs2)n1 [Compound 254] | 1000 | 10000
37 | Cn1nccc1CNC(=O)c1cc(-c2ccc3nc(N)nn3c2)cs1 [Compound 255] | 1990 | 4400
38 | COc1ccnc(CNC(=O)c2cc(-c3ccc4nc(N)nn4c3)cs2)c1 [Compound 256] | 1600 | 17000
39 | Nc1nc2ccc(-c3csc(C(=O)NCc4cn5ccccc5n4)c3)cn2n1 [Compound 257] | 1100 | > 30000
40 | COc1ccc2c(c1)nc(CNC(=O)c1cc(-c3ccc4nc(N)nn4c3)cs1)n2C [Compound 260] | 1200 | > 30000
41 | Nc1nc2ccc(-c3csc(C(=O)NCc4cnc5ccccn45)c3)cn2n1 [Compound 261] | 510 | 14000
42 | COc1cccc([C@H](C)NC(=O)c2cc(-c3ccc4nc(N)nn4c3)cs2)c1 [Compound 263] | 355 | > 30000
43 | COc1cccc([C@@H](C)NC(=O)c2cc(-c3ccc4nc(N)nn4c3)cs2)c1 [Compound 264] | 505 | > 30000
44 | C[C@H](NC(=O)c1cc(-c2ccc3nc(N)nn3c2)cs1)c1cccc(Cl)c1 [Compound 265] | 130 | > 30000
45 | C[C@@H](NC(=O)c1cc(-c2ccc3nc(N)nn3c2)cs1)c1cccc(Cl)c1 [Compound 267] | 260 | > 30000
46 | COc1ccc2c(c1)C(NC(=O)c1cc(-c3ccc4nc(N)nn4c3)cs1)CC(C)(C)O2 (stereo not shown) [Compound 268] | 180 | 22000

Row | SMILES | IC50 (DLK) [nM] | IC50 (LZK) [nM]
47 | COc1cccc(C(C)(C)NC(=O)c2cc(-c3ccc4nc(N)nn4c3)cs2)c1 [Compound 269] | 590 | > 30000
48 | CCNC(=O)c1cc(-c2ccc3nc(N)nn3c2)cs1 [Compound 270] | 3500 | > 30000
49 | COCCCNC(=O)c1cc(-c2ccc3nc(N)nn3c2)cs1 [Compound 271] | 3500 | > 30000
50 | COC1CCC(NC(=O)c2cc(-c3ccc4nc(N)nn4c3)cs2)C1 (stereo not shown) [Compound 272] | 1500 | > 30000
51 | Nc1nc2ccc(-c3csc(C(=O)NCc4ccsc4)c3)cn2n1 [Compound 273] | 580 | 14000
52 | Nc1nc2ccc(-c3csc(C(=O)NCc4cccs4)c3)cn2n1 [Compound 274] | 260 | 11000
53 | Nc1nc2ccc(-c3csc(C(=O)NCc4ccco4)c3)cn2n1 [Compound 275] | 630 | 16000
54 | Cn1cccc1CNC(=O)c1cc(-c2ccc3nc(N)nn3c2)cs1 [Compound 276] | 420 | 15000
55 | Nc1nc2ccc(-c3csc(C(=O)NCc4ccoc4)c3)cn2n1 [Compound 277] | 480 | 18000
56 | CCc1ccccc1NC(=O)c1cc(-c2ccc3nc(N)nn3c2)cs1 [Compound 278] | 440 | > 30000
57 | Nc1nc2ccc(-c3csc(C(=O)NCc4ccc(OCCN5CCCCC5)cc4)c3)cn2n1 [Compound 279] | 2100 | > 30000
58 | COC(=O)c1cccc(CNC(=O)c2cc(-c3ccc4nc(N)nn4c3)cs2)c1 [Compound 280] | 250 | 23000
59 | Nc1nc2ccc(-c3csc(C(=O)NCc4ccc(OCCN5CCOCC5)cc4)c3)cn2n1 [Compound 281] | 1500 | > 30000
60 | COc1cccc(CCNC(=O)c2cc(-c3ccc4nc(N)nn4c3)cs2)c1 [Compound 282] | 750 | > 30000
61 | Nc1nc2ccc(-c3csc(C(=O)NCCc4c(F)cccc4Cl)c3)cn2n1 [Compound 283] | 530 | > 30000
62 | CN(CCc1ccccc1)C(=O)c1cc(-c2ccc3nc(N)nn3c2)cs1 [Compound 284] | 2600 | > 30000
63 | Nc1nc2ccc(-c3csc(C(=O)NCc4cccc(C(=O)O)c4)c3)cn2n1 [Compound 285] | 1700 | 20000
64 | Nc1nc2ccc(-c3csc(C(=O)Nc4ccccc4OC(F)(F)F)c3)cn2n1 [Compound 286] | 600 | > 30000
65 | CCN1CCC[C@@H](NC(=O)c2cc(-c3ccc4nc(N)nn4c3)cs2)C1 [Compound 287] | 5700 | > 30000
66 | Nc1nc2ccc(-c3csc(C(=O)Nc4ccccc4OC(F)F)c3)cn2n1 [Compound 288] | 2400 | 20000
67 | Nc1nc2ccc(-c3csc(C(=O)Nc4ccccc4CO)c3)cn2n1 [Compound 289] | 2600 | 2000
68 | COc1cccc(C(CCO)NC(=O)c2cc(-c3ccc4nc(N)nn4c3)cs2)c1 (stereo not shown) [Compound 290] | 620 | 7400

Reference: US20230382904A1, “SUBSTITUTED 4-([1,2,4]TRIAZOLO[1,5-a]PYRIDIN-6-YL)THIOPHENE-2-CARBOXAMIDE DERIVATIVES AND USE THEREOF” (The Johns Hopkins University, priority 2020, published 2023)
